Experimental data from patent US10548911B2, “Small molecule anti-scarring agents” (UNIVERSITY OF ROCHESTER, priority 2014, dated 2020).
Entries after “also recorded” stand apart in the source; their conditions may differ.

Key:
[1] = system: primary human orbital fibroblasts; assay: TGFβ-induced myofibroblast formation, αSMA Western blot, primary human orbital fibroblasts; settings: for overt toxicity / TGFβ-induced myofibroblast differentiation (αSMA expression): 2-500 μM
Method: Total protein was isolated from 0.5-2×10^6 cells and lysed in 60 mM Tris, pH 6.8, 2% SDS containing 1× protease inhibitor cocktail (Sigma, St. Louis, Mo.). The lysates were passed through a 26 gauge needle 5-6 times to shear genomic DNA. Protein concentrations were determined using the detergent compatible protein assay (BioRad). Total protein (1-10 ug per lane) was subjected to SDS-PAGE. Protein gels were transferred to PVDF membrane (Millipore) and probed with antibodies as specified. Western blot band intensities were quantified using ImageLab software (BioRad). Protein expression was normalized to β-tubulin levels.
Primary human orbital fibroblasts, primary human lung fibroblasts, and primary mouse lung fibroblasts were treated with TGFβ and HCPT (50 nM, 500 nM, and 5000 nM) or SNC (500 nM) or AXD (0.5 μM, 5 μM, and 50 μM) to assess the ability of HCPT to inhibit myofibroblast formation. […] Western blots were performed using cell lysates from the fibroblasts exposed to TGFβ to assess TGFβ-dependent αSMA expression.
Primary human orbital fibroblasts were treated with TGFβ and either 6-formylindolo(3,2-b)carbazole (“FICZ”, 1 μM), Omeprazole (“Ome”, 2 μM, 10 μM, 50 μM, 100 μM, 250 μM, 500 μM), or Flutamide (“Flut”, 2 μM, 10 μM, 50 μM, 100 μM, 250 μM, 500 μM) to assess their ability to inhibit myofibroblast formation. […] Western blots were performed using cell lysates from the fibroblasts exposed to TGFβ to assess TGFβ-dependent αSMA expression. Densitometry analyses of the Western blots were also performed.

[2] = system: TGFβ-induced SBE-luciferase activity; assay: Secondary dual luciferase screen (SBE-luciferase normalized to constitutive Renilla luciferase); format: cell-based, human; settings: secondary dual luciferase screen, several doses (low micromolar)
Method: FIG. 1A is a diagram of Smad-dependent reporter construct. Four tandem Smad binding elements (SBE) were inserted upstream of the minimal Thymidine Kinase (TK) promoter. Downstream of the promoter is a destabilized version of the firefly luciferase gene (luc2P) present in the pLuc2P-Hygro plasmid which also harbors the hygromycin resistance gene. The plasmid was introduced into HEK293FT cell line and individual colonies were selected with hygromycin (200 ug/ml) to develop a Smad/TGFβ dependent-luciferase reporter cell line. FIG. 1B is a graph illustrating the response of the reporter cell line to 1 ng/ml treatment of TGFβ for 20 hours, which results in an approximately 20-fold increase of luciferase activity.
They are: Benzbromarone (“BZB”), Bithionate sodium (“BTS”), Piplartine (piperlongumine) (“PPT”), Amsacrine (“ASC”), and Alexidine (“AXD”). A secondary luciferase screening assay was performed to determine specificity and dose responsiveness of these compounds in comparison to salinomycin (“SNC”). The secondary screen utilizes dual luciferase technology that includes the above mentioned SBE-luciferase in addition to a Renilla luciferase that is under control of the constitutive SV40 promoter. Therefore the SBE-luciferase activity can be normalized to the Renilla luciferase activity to control for toxicity and non-specific effects. The secondary screen can thus be used to remove small molecules that display overt toxicity and/or non-specific effects on the primary assay.

[3] = system: TGFβ-induced luciferase activity; assay: Spectrum collection small molecule screen with TGFβ-dependent SBE-luciferase HEK293FT reporter cell line; format: cell-based, human; settings: HEK293FT-luc reporter line
Text: The minimal thymidine kinase promoter was amplified by PCR with the following forward and reverse primers, of which the forward primer contained four tandem Smad binding elements (SBE):
Restriction sites in the primers are underlined. The resultant PCR product was TOPO cloned (Invitrogen) and the correct insert was verified by DNA sequencing. The construct was digested with SacI-HindIII and the SBEx4-TK insert was purified and ligated with the pGL4.15 vector (Promega). Clones were verified by restriction digest and then tested for TGFβ responsiveness in transient transfections of 293FT cells. […] Clones were selected by treatment with 200 μg/ml hygromycin. 20 clones were selected and screened for TGFβ-induced luciferase activity. One clone that was robustly responsive was subsequently used in the small molecule screen.
Excessive scarring results from the formation of too many myofibroblasts and the production of too much extracellular matrix material such as collagen. Since TGFβ drives the formation of myofibroblasts in part through activating the Smad pathway, a reporter construct was designed to serve as a measure of TGFβ-induced Smad activity (FIG. 1A). Four tandem Smad binding elements (SBE) were inserted upstream of the minimal thymidine kinase promoter. The SBEx4-TK promoter was inserted into the pGL4.15 vector which contains a destabilized firefly luciferase gene and the hygromycin resistance gene. The pSBEx4-TK-luc-Hygro plasmid was then introduced into HEK293FT cells by lipofection. Stable clones were generated and screened for TGFβ induced luciferase activity. One clone was selected that consistently gave a 15 to 20-fold induction of luciferase activity when cells were treated with TGFβ for 24 hours (FIG. 1B).
To find compounds that inhibit TGFβ activity and thus may be novel anti-scarring compounds, the Spectrum collection of 2,300 small molecules was screened with the cell line. […] Salinomycin, an antibiotic produced from Streptomyces albus is used as coccidiostat agent in animal feed (Knirschova et al., “Multiple regulatory genes in the salinomycin biosynthetic gene cluster of Streptomyces albus CCM 4719,” Folia Microbiologica 52:359-365 (2007), which is hereby incorporated by reference in its entirety). […] Thus, further investigation was made to assess the use of salinomycin as an anti-scarring agent.

[4] = system: TGFβ-dependent myofibroblast formation in primary human fibroblasts; assay: Myofibroblast formation assay in primary human fibroblasts (morphology, Western blot) for Spectrum hits; format: cell-based; settings: for α-SMA and calponin expression in human fibroblasts: FIG. 14 lanes: PPT 1, 5 uM, AXD 0.1, 1 uM, SNC 100 nM, 1 uM; for α-SMA and calponin expression in human fibroblasts / TGFβ-dependent αSMA and calponin (marker) expression / myofibroblast formation / phenotype: BTS, ASC; for TGFβ-dependent αSMA and calponin (marker) expression: higher dose: PPT 5 μM; for TGFβ-dependent αSMA and calponin (marker) expression / myofibroblast formation / phenotype: AXD 1 μM; for myofibroblast formation / phenotype: lowest effective dose from secondary screen: PPT 5 μM, SNC 0.1 μM, TGFβ 1 ng/ml, 72 hours
Method: Using the lowest effective dose from the secondary screening assay, PPT (5 μM), ASC (1 μM), BTS (1 μM), and AXD (1 μM) were compared to 0.1 μM SNC using primary human fibroblasts (FIG. 13). The myofibroblast formation assay consists of the following protocol: fibroblasts are treated with the aforementioned small molecules and treated with TGFβ (1 ng/ml) for 72 hours. The cells were then either photographed for morphological analysis or collected, lysed and analyzed by Western blot for the myofibroblast markers alpha-smooth muscle actin (αSMA) and calponin. β-tubulin was used as a loading control.
PPT was used at 1 and 5 μM (lanes 3 and 4), BTS was used at 0.1 and 1 μM (lanes 5 and 6), ASC was used at 0.1 and 1 μM (lanes 7 and 8), SNC was used at 100 nM and 1 μM (lanes 9 and 10), and AXD was used at 0.1 and 1 μM (lanes 11 and 12).

[5] = system: TGFβ-induced myofibroblast formation in human fibroblasts; assay: Western blot of myofibroblast markers αSMA and calponin in TGFβ-treated human (TED orbital) fibroblasts; format: cell-based; settings: 250 nM, TGFβ, 72 hours
Method: TED fibroblasts were treated with TGFβ (1 ng/ml) in the presence or absence of 10-250 nM salinomycin for 72 hours to allow formation of myofibroblasts. After 72 hours, cells were harvested and analyzed by Western blot. As expected, the fibroblasts robustly responded to TGFβ, expressing high levels of αSMA and calponin (FIG. 2A). […] At 50 nM salinomycin, expression of αSMA was reduced by 4-fold over TGFβ treatment alone. Furthermore, at 250 nM salinomycin, αSMA expression was reduced by approximately 16-fold, to levels at or below untreated fibroblasts. […] Another key role of myofibroblasts in scar formation is the production of collagen. Whether salinomycin could block myofibroblast collagen production was assessed. Cells were treated with TGFβ and salinomycin as above and after 72 hours, culture medium was collected and analyzed for collagen levels using a specific collagen I antibody and slot blot analysis.
To test these four compounds, human fibroblasts were treated with TGFβ in the absence or presence of 250 nM of either salinomycin, narasin, clioquinol or monensin for 72 hours. After treatment, cell lysates were harvested and analyzed for the presence of the myofibroblast markers, αSMA and calponin (FIG. 3B).

human fibroblasts = assay: BrdU incorporation assay (cell proliferation); format: cell-based
Method: Human fibroblasts were seeded on a 96-well plate at a density of 1×10^5 cells/well. Cells were treated in triplicate. Cell proliferation was determined using the bromodeoxyuridine (BrdU) assay following manufacturer's instructions. Briefly, cells were treated with a BrdU label at a 1:2000 dilution for 24 h after the initial 72 h treatment with TGFβ+/−drugs. BrdU incorporation was measured using the BrdU Cell Proliferation Assay kit (Calbiochem, San Diego, Calif.) at 450-540 nm using a Varioskan microplate reader.
While salinomycin and other polyether ionophores blocked myofibroblast formation, it was next assessed whether these effects were a result of toxicity and/or due to a block of cell proliferation. Though the treatment doses are relatively low (efficacy in 100-250 nM range), a loss of cell viability could still be a possibility. To test this, human fibroblasts were treated with vehicle (DMSO), 50-250 nM salinomycin alone, TGFβ or TGFβ plus 250 nM salinomycin. As a positive control, fibroblasts were treated with the cytotoxic drug, puromycin. Treated cells were cultured in the presence of alamar blue reagent, which measures mitochondrial oxidation-reduction (REDOX) potential and serves as a quantitative viability sensor. After 72 hours of culture, alamar blue fluorescence was measured to assay cell viability (FIG. 4A). […] It was also tested whether salinomycin affects basal fibroblast proliferation. To address this, cells were treated with vehicle or 250 nm of either salinomycin or narasin for 24 hours in the presence of bromodeoxyuridine (BrdU) to measure cell proliferation ([…], first three bars). […] BrdU was also added to cells treated with TGFβ in the presence or absence of 250 nM salinomycin or narasin (FIG. 4B, last three bars). As expected, TGFβ induced human fibroblast proliferation. Remarkably, both salinomycin and narasin were able to beneficially block TGFβ induced proliferation by 4 to 5 fold, without affecting basal proliferation levels.

SMILES	inhibition of luciferase expression, dose responsiveness [2]	inhibition of TGFβ-induced luciferase activity, initial screen [3]	α-SMA and calponin expression in human fibroblasts [4]	TGFβ-dependent αSMA and calponin (marker) expression [4]	myofibroblast formation / phenotype [4]	further results
COc1ccc2[nH]c([S+]([O-])Cc3ncc(C)c(OC)c3C)nc2c1 (racemic) [omeprazole]						αSMA expression ([1]; 100 μM): sub-baseline levels; overt toxicity [1]: No overt toxicity was observed; TGFβ-induced myofibroblast differentiation (αSMA expression) [1]: inhibited TGFβ-induced myofibroblast differentiation; also recorded: inhibits human orbital fibroblast to myofibroblast differentiation
CCc1oc2ccccc2c1C(=O)c1cc(Br)c(O)c(Br)c1 [BZB, benzbromarone]	All but BZB substantially inhibited luciferase expression	inhibit TGFβ-induced luciferase				
COc1cc(/C=C/C(=O)N2CCC=CC2=O)cc(OC)c1OC [PPT, piplartine (piperlongumine)]	substantially inhibited luciferase expression; also recorded: strong luciferase inhibition	inhibit TGFβ-induced luciferase	inhibit β-dependent α-SMA and calponin expression	inhibited marker expression	inhibit myofibroblast phenotype; also recorded: inhibits myofibroblast formation	
CCCCC(CC)CNC(=N)NC(=N)NCCCCCCNC(=N)NC(=N)NCC(CC)CCCC (stereo not shown) [AXD, alexidine]	substantially inhibited luciferase expression; also recorded: strong luciferase inhibition	inhibit TGFβ-induced luciferase	inhibit β-dependent α-SMA and calponin expression	inhibited marker expression	inhibit myofibroblast phenotype; also recorded: inhibits myofibroblast formation	expression of Thy1 ([4]; high dose, 1 μM): did inhibit Thy1
COc1cc(NS(C)(=O)=O)ccc1Nc1c2ccccc2nc2ccccc12 [ASC, amsacrine]	substantially inhibited luciferase expression; also recorded: strong luciferase inhibition	inhibit TGFβ-induced luciferase	inhibit β-dependent α-SMA and calponin expression	inhibited marker expression	inhibit myofibroblast phenotype; also recorded: inhibits myofibroblast formation	
Oc1c(Cl)cc(Cl)cc1Sc1cc(Cl)cc(Cl)c1O [BTS, bithionate sodium]	substantially inhibited luciferase expression; also recorded: strong luciferase inhibition	inhibit TGFβ-induced luciferase	inhibit β-dependent α-SMA and calponin expression	inhibited marker expression	inhibit myofibroblast phenotype; also recorded: inhibits myofibroblast formation	
CC(C)C(=O)Nc1ccc([N+](=O)[O-])c(C(F)(F)F)c1 [flutamide, Flutamide]						overt toxicity [1]: No overt toxicity was observed; TGFβ-induced myofibroblast differentiation (αSMA expression) [1]: inhibited TGFβ-induced myofibroblast differentiation; also recorded: inhibits human orbital fibroblast to myofibroblast differentiation
CC[C@@H](C(=O)O)[C@@H]1O[C@@H]([C@@H](C)[C@H](O)[C@H](C)C(=O)[C@H](CC)[C@H]2O[C@]3(C=C[C@@H](O)[C@]4(CC[C@@](C)([C@H]5CC[C@](O)(CC)[C@H](C)O5)O4)O3)[C@H](C)C[C@@H]2C)[C@@H](C)C[C@@H]1C [narasin]						expression of αSMA and calponin [5]: inhibited expression of αSMA and calponin; TGFβ induced proliferation (BrdU incorporation) (human fibroblasts; 250 nM plus TGFβ): significantly blocked TGFβ induced proliferation; basal fibroblast proliferation (BrdU incorporation) (human fibroblasts; 250 nM, without TGFβ): did not affect basal fibroblast proliferation; also recorded: Neither salinomycin nor narasin blocked basal fibroblast proliferation
